According to the supplement of paper PMC11061612:

Experiments:
Lapatinib = compound: CS(=O)(=O)CCNCc1ccc(-c2ccc3ncnc(Nc4ccc(OCc5cccc(F)c5)c(Cl)c4)c3c2)o1 [Lapatinib]; conditions: max 10 µM
Method in brief: (§1)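 Cancer cell lines in 1536-well plates (7.5 μl DMEM/F12 or RPMI, 10% FBS) were held 24 hours at 37°C and 5% CO2 and then dosed for 72 hours at a final DMSO of typically 0.2%. Viability was taken from CellTiter-Glo 2.0 luminescence, scaled between blank-well and DMSO-well means. Curves were fitted as two-parameter logistic models with a non-linear mixed effects model, from which the single-agent IC50 was taken.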

AZD8186 = compound: C[C@@H](Nc1cc(F)cc(F)c1)c1cc(C(=O)N(C)C)cc2c(=O)cc(N3CCOCC3)oc12 [AZD8186]; conditions: max 3 µM
Method in brief: as §1

AZD4320 = compound: CN(CC[C@H](CSC1=CC=CC=C1)NC2=C(C=C(C=C2)S(=O)(=O)NC(=O)C3=CC=C(C=C3)N4CCC(CC4)[C@H](C5=CC=CC=C5C6=CC=C(C=C6)Cl)O)S(=O)(=O)C(F)(F)F)CCO [AZD4320]; conditions: max 1 µM
Method in brief: as §1

Olaparib = compound: O=C(c1cc(Cc2n[nH]c(=O)c3ccccc23)ccc1F)N1CCN(C(=O)C2CC2)CC1 [Olaparib]; conditions: max 10 µM
Method in brief: as §1

SN-38 = compound: CCc1c2c(nc3ccc(O)cc13)-c1cc3c(c(=O)n1C2)COC(=O)[C@]3(O)CC [SN-38]; conditions: max 0.3 µM
Method in brief: as §1

SG3199 = compound: CC1=CN2[C@@H](C1)C=NC3=CC(=C(C=C3C2=O)OC)OCCCCCOC4=C(C=C5C(=C4)N=C[C@@H]6CC(=CN6C5=O)C)OC [SG3199]; conditions: max 0.001 µM
Method in brief: as §1

Taselisib = compound: Cc1nc(-c2cn3c(n2)-c2ccc(-c4cnn(C(C)(C)C(N)=O)c4)cc2OCC3)n(C(C)C)n1 [Taselisib]; conditions: max 10 µM
Method in brief: as §1

Trametinib = compound: CC(=O)Nc1cccc(-n2c(=O)n(C3CC3)c(=O)c3c(Nc4ccc(I)cc4F)n(C)c(=O)c(C)c32)c1 [Trametinib]; conditions: max 1 µM
Method in brief: as §1

Capivasertib = compound: C1CN(CCC1(C(=O)N[C@@H](CCO)C2=CC=C(C=C2)Cl)N)C3=NC=NC4=C3C=CN4 [Capivasertib]; conditions: max 10 µM
Method in brief: as §1

Savolitinib = compound: C[C@@H](c1ccc2nccn2c1)n1nnc2ncc(-c3cnn(C)c3)nc21 [Savolitinib]; conditions: max 1 µM
Method in brief: as §1

Gefitinib = compound: COc1cc2ncnc(Nc3ccc(F)c(Cl)c3)c2cc1OCCCN1CCOCC1 [Gefitinib]; conditions: max 10 µM
Method in brief: as §1

Selumetinib = compound: Cn1cnc2c(F)c(Nc3ccc(Br)cc3Cl)c(C(=O)NOCCO)cc21 [Selumetinib]; conditions: max 10 µM
Method in brief: as §1

AZD0156 = compound: CN(C)CCCOc1ccc(-c2ccc3ncc4c(c3c2)n(C2CCOCC2)c(=O)n4C)cn1 [AZD0156]; conditions: max 3 µM
Method in brief: as §1

Doxorubicin = compound: COc1cccc2c1C(=O)c1c(O)c3c(c(O)c1C2=O)C[C@@](O)(C(=O)CO)C[C@@H]3O[C@H]1C[C@H](N)[C@H](O)[C@H](C)O1 [Doxorubicin]; conditions: max 1 µM
Method in brief: as §1

Dasatinib = compound: CC1=C(C(=CC=C1)Cl)NC(=O)C2=CN=C(S2)NC3=CC(=NC(=N3)C)N4CCN(CC4)CCO [Dasatinib]; conditions: max 2 µM
Method in brief: as §1

AZD1390 = compound: CC(C)n1c(=O)n(C)c2cnc3cc(F)c(-c4ccc(OCCCN5CCCCC5)nc4)cc3c21 [AZD1390]; conditions: max 0.3 µM
Method in brief: as §1

Palbociclib = compound: CC(=O)c1c(C)c2cnc(Nc3ccc(N4CCNCC4)cn3)nc2n(C2CCCC2)c1=O [Palbociclib]; conditions: max 10 µM
Method in brief: as §1

Prexasertib = compound: COc1cccc(OCCCN)c1-c1cc(Nc2cnc(C#N)cn2)n[nH]1 [Prexasertib]; conditions: max 1 µM
Method in brief: as §1

Crizotinib = compound: C[C@@H](Oc1cc(-c2cnn(C3CCNCC3)c2)cnc1N)c1c(Cl)ccc(F)c1Cl [Crizotinib]; conditions: max 10 µM
Method in brief: as §1

Venetoclax = compound: CC1(C)CCC(CN2CCN(c3ccc(C(=O)NS(=O)(=O)c4ccc(NCC5CCOCC5)c([N+](=O)[O-])c4)c(Oc4cnc5[nH]ccc5c4)c3)CC2)=C(c2ccc(Cl)cc2)C1 [Venetoclax]; conditions: max 1 µM
Method in brief: as §1

AZD2811 = compound: CCN(CCO)CCCOc1ccc2c(Nc3cc(CC(=O)Nc4cccc(F)c4)[nH]n3)ncnc2c1 [AZD2811]; conditions: max 1 µM
Method in brief: as §1

AZD6738 = compound: C[C@@H]1COCCN1C2=NC(=NC(=C2)C3(CC3)[S@](=N)(=O)C)C4=C5C=CNC5=NC=C4 [AZD6738]; conditions: max 10 µM
Method in brief: as §1

AZD5991 = compound: Cc1c2c(nn1C)CSCc1cc(n(C)n1)CSc1cc(c3ccccc3c1)OCCCc1c(C(=O)O)n(C)c3c-2c(Cl)ccc13 [AZD5991]; conditions: max 1 µM
Method in brief: as §1

MK-2206 = compound: NC1(c2ccc(-c3nc4ccn5c(=O)[nH]nc5c4cc3-c3ccccc3)cc2)CCC1 [MK-2206]; conditions: max 10 µM
Method in brief: as §1

AZD1775 = compound: C=CCn1c(=O)c2cnc(Nc3ccc(N4CCN(C)CC4)cc3)nc2n1-c1cccc(C(C)(C)O)n1 [AZD1775]; conditions: max 3 µM
Method in brief: as §1

AZD5153 = compound: COc1nnc2ccc(N3CCC(c4ccc(OCCN5CCN(C)C(=O)[C@H]5C)cc4)CC3)nn12 [AZD5153]; conditions: max 1 µM
Method in brief: as §1

Alisertib = compound: COc1cc(Nc2ncc3c(n2)-c2ccc(Cl)cc2C(c2c(F)cccc2OC)=NC3)ccc1C(=O)O [Alisertib]; conditions: max 10 µM
Method in brief: as §1

AZD7648 = compound: Cc1cc2ncnn2cc1Nc1ncc2c(n1)n(C1CCOCC1)c(=O)n2C [AZD7648]; conditions: max 10 µM
Method in brief: as §1

Row | Cell Line | IC50, cell viability 72 h (Lapatinib) [µM] | IC50, cell viability 72 h (AZD8186) [µM] | IC50, cell viability 72 h (AZD4320) [µM] | IC50, cell viability 72 h (Olaparib) [µM] | IC50, cell viability 72 h (SN-38) [µM] | IC50, cell viability 72 h (SG3199) [µM] | IC50, cell viability 72 h (Taselisib) [µM] | IC50, cell viability 72 h (Trametinib) [µM] | IC50, cell viability 72 h (Capivasertib) [µM] | IC50, cell viability 72 h (Savolitinib) [µM] | IC50, cell viability 72 h (Gefitinib) [µM] | IC50, cell viability 72 h (Selumetinib) [µM] | IC50, cell viability 72 h (AZD0156) [µM] | IC50, cell viability 72 h (Doxorubicin) [µM] | IC50, cell viability 72 h (Dasatinib) [µM] | IC50, cell viability 72 h (AZD1390) [µM] | IC50, cell viability 72 h (Palbociclib) [µM] | IC50, cell viability 72 h (Prexasertib) [µM] | IC50, cell viability 72 h (Crizotinib) [µM] | IC50, cell viability 72 h (Venetoclax) [µM] | IC50, cell viability 72 h (AZD2811) [µM] | IC50, cell viability 72 h (AZD6738) [µM] | IC50, cell viability 72 h (AZD5991) [µM] | IC50, cell viability 72 h (MK-2206) [µM] | IC50, cell viability 72 h (AZD1775) [µM] | IC50, cell viability 72 h (AZD5153) [µM] | IC50, cell viability 72 h (Alisertib) [µM] | IC50, cell viability 72 h (AZD7648) [µM]
1 | ES-2 (Ovarian Carcinoma) | > 10 | > 3 | > 1 | > 10 | 0.0145 | > 0.001 | > 10 | 0.128 | > 10 | > 1 | > 10 | 7.43 | > 3 | > 1 | > 2 | > 0.3 | > 10 | 0.0401 | > 10 | > 1 | > 1 | 3.78 | > 1 | 4.4 | 0.476 | 0.875 | 0.596 | > 10
2 | HuO-3N1 (Osteosarcoma) | > 10 | > 3 | > 1 | > 10 | 0.275 | > 0.001 | 6.88 | > 1 | > 10 | > 1 | > 10 | > 10 | > 3 | 0.616 | 0.305 | > 0.3 | > 10 | 0.529 | > 10 | > 1 | > 1 | > 10 | 0.613 | > 10 | > 3 | > 1 | > 10 | > 10
3 | NCI-H1155 (Non-Small Cell Lung Carcinoma) | > 10 | > 3 | > 1 | > 10 | 0.00468 | > 0.001 | > 10 | > 1 | 8.34 | > 1 | > 10 | > 10 | > 3 | 0.617 | > 2 | > 0.3 | > 10 | 0.0491 | > 10 | > 1 | > 1 | 5.97 | > 1 |  | > 3 | 0.541 | 9.88 | > 10
4 | NCI-H1563 (Lung Adenocarcinoma) | > 10 | 2.27 | > 1 | > 10 | > 0.3 | > 0.001 | 2.48 | > 1 | > 10 | > 1 | > 10 | > 10 | > 3 | > 1 | 1.12 | > 0.3 | > 10 | > 1 | > 10 | > 1 | > 1 | > 10 | > 1 |  | > 3 | > 1 | > 10 | > 10
5 | NCI-H1623 (Lung Adenocarcinoma) | 0.902 | > 3 | > 1 | > 10 | 0.00747 | > 0.001 | 0.34 | 0.229 | > 10 | > 1 | 0.714 | > 10 | > 3 | > 1 | > 2 | > 0.3 | > 10 | 0.0895 | > 10 | > 1 | > 1 | 8.05 | 0.163 |  | > 3 | > 1 | > 10 | > 10
6 | OCI-AML5 (Acute Myeloid Leukemia) | > 10 | > 3 | 0.0427 | > 10 | 0.00954 | > 0.001 | 2.19 | 0.0289 | > 10 | > 1 | > 10 | 2.12 | > 3 | 0.658 | > 2 | > 0.3 | 6.64 | 0.0134 | 2.41 | 0.0506 | 0.0186 | 2.24 | 0.0588 |  | 0.543 | 0.323 | 1.13 | > 10
